{"source": "PubChem BioAssay AID1208", "about": "(EPA DSSTox, 2008)", "test_system": "rat chronic carcinogenicity bioassay, TD50", "assay": "DSSTox (CPDBAS) Carcinogenic Potency Database Summary Rat Bioassay Results", "conditions": "for outcome: TD50_Rat_Note: no positive results; for Potency: hits give low values", "in_short": "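The activity score maps log10(1/TD50_Rat_mmol) linearly onto 1–100; actives without a computed TD50, such as mixtures, receive 50. Source data are chronic rat carcinogenicity tests, using the most positive experiment for each sex.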", "key": {"[1]": {"conditions": "TargetSites_Rat_Female: no positive results"}, "[2]": {"conditions": "TD50_Rat_Note: TD50 is harmonic mean of more than one positive test, TargetSites_Rat_Female: liver"}, "[3]": {"conditions": "TargetSites_Rat_Female: mammary gland"}, "[4]": {"conditions": "TD50_Rat_Note: TD50 is harmonic mean of more than one positive test, TargetSites_Rat_Female: stomach"}, "[5]": {"conditions": "TD50_Rat_Note: TD50 is harmonic mean of more than one positive test, TargetSites_Rat_Female: liver, mammary gland"}}, "note": "Calls of active or inactive are those of the source.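 Rule for the calls: active = at least one rat sex group has a carcinogenic potency value and tumor site recorded; inconclusive = only rat studies were judged inadequate by the national testing program; inactive = no potency or tumor site, with negative rat experiments.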", "data": [{"compound": "CC(=O)OC1CC(C)OC(C)O1", "note": "(configuration not stated)", "values": [{"measurement": "outcome", "setting": "[1]", "value": "inactive; no positive results"}, {"measurement": "Potency", "value": 716, "unit": "mg/kg/day"}]}, {"compound": "CCSCCC(N)C(=O)O", "note": "(configuration not stated)", "values": [{"measurement": "Potency", "setting": "TD50_Rat_Note: TD50 is harmonic mean of more than one positive test, harmonic mean of TD50 includes a value for upper 99% confidence li", "value": 9.76, "unit": "mg/kg/day"}]}, {"compound": "C=CC(=C)Cl", "values": [{"measurement": "Potency", "setting": "TD50_Rat_Note: TD50 is harmonic mean of more than one positive test, TargetSites_Rat_Female: kidney, mammary gland, oral cavity, thyroid gland", "value": 12.5, "unit": "mg/kg/day"}, {"measurement": "outcome", "setting": "[1]", "value": "inactive; no positive results"}]}, {"compound": "CC(=O)Nc1ccc2c(c1)C(=O)c1ccccc1-2", "values": [{"measurement": "Potency", "setting": "TargetSites_Rat_Female: ear Zymbals gland, liver, mammary gland", "value": 6.17, "unit": "mg/kg/day"}]}, {"compound": "CN(N=O)C(=O)c1ccccc1", "values": [{"measurement": "Potency", "setting": "TD50_Rat_Note: TD50 is harmonic mean of more than one positive test, TargetSites_Rat_Female: all tumor bearing animals", "value": 3.23, "unit": "mg/kg/day"}]}, {"compound": "NC(=O)NC1NC(=O)NC1=O", "note": "(configuration not stated)", "values": [{"measurement": "outcome", "setting": "[1]", "value": "inactive; no positive results"}]}, {"compound": "Brc1c(Br)c(Br)c(Oc2c(Br)c(Br)c(Br)c(Br)c2Br)c(Br)c1Br", "values": [{"measurement": "Potency", "setting": "[2]", "value": 3340, "unit": "mg/kg/day"}, {"measurement": "outcome", "setting": "[1]", "value": "inactive; no positive results"}]}, {"compound": "CCOP(=S)(OCC)SC1OCCOC1SP(=S)(OCC)OCC", "note": "(configuration not stated)", "values": [{"measurement": "outcome", "setting": "[1]", "value": "inactive; no positive results"}]}, {"compound": "CN1[C@@H]2CC(OC(=O)[C@@H](CO)c3ccccc3)C[C@H]1[C@@H]1O[C@@H]12", "note": "(some centres not stated)", "values": [{"measurement": "outcome", "setting": "[1]", "value": "inactive; no positive results"}]}, {"compound": "ClC#CCl", "values": [{"measurement": "Potency", "setting": "TD50_Rat_Note: TD50 is harmonic mean of more than one positive test, TargetSites_Rat_Female: hematopoietic system, kidney, liver", "value": 3.58, "unit": "mg/kg/day"}]}, {"compound": "C[N+](C)(C)CCO", "values": [{"measurement": "outcome", "value": "inactive; no positive results"}]}, {"compound": "O=C1OC(=O)c2ccccc21", "values": [{"measurement": "outcome", "setting": "[1]", "value": "inactive; no positive results"}]}, {"compound": "NNC(=O)c1ccncc1", "values": [{"measurement": "Potency", "setting": "TD50_Rat_Note: TD50 is harmonic mean of more than one positive test, TargetSites_Rat_Female: mammary gland", "value": 150, "unit": "mg/kg/day"}]}, {"compound": "CN1C(C(=O)Nc2ccccn2)=C(O)c2ccccc2S1(=O)=O", "values": [{"measurement": "outcome", "value": "inactive; no positive results"}]}, {"compound": "CCOc1ccc(NC(C)=O)cc1", "values": [{"measurement": "Potency", "setting": "TD50_Rat_Note: TD50 is harmonic mean of more than one positive test, TargetSites_Rat_Female: ear Zymbals gland, mammary gland, nasal cavity, urinary bladder", "value": 1250, "unit": "mg/kg/day"}]}, {"compound": "CC(C)(C)c1cc(CO)cc(C(C)(C)C)c1O", "values": [{"measurement": "outcome", "setting": "[1]", "value": "inactive; no positive results"}]}, {"compound": "O=S(=O)(O)c1ccc2c(N=Nc3ccc(S(=O)(=O)O)c4ccccc34)c(O)c(S(=O)(=O)O)cc2c1", "values": [{"measurement": "Potency", "setting": "TD50_Rat_Note: TD50 is harmonic mean of more than one positive test, TargetSites_Rat_BothSexes: hematopoietic system", "value": 1470, "unit": "mg/kg/day"}]}, {"compound": "CCNc1nc(Cl)nc(NC(C)(C)C#N)n1", "values": [{"measurement": "Potency", "setting": "[3]", "value": 6.33, "unit": "mg/kg/day"}]}, {"compound": "O=[N+]([O-])c1ccc(Nc2ccc(Nc3ccccc3)c(S(=O)(=O)O)c2)c([N+](=O)[O-])c1", "values": [{"measurement": "Potency", "setting": "TargetSites_Rat_Female: kidney", "value": 1710, "unit": "mg/kg/day"}]}, {"compound": "COc1ccccc1[N+](=O)[O-]", "values": [{"measurement": "Potency", "setting": "TD50_Rat_Note: TD50 is harmonic mean of more than one positive test, greater than ten-fold variation among TD50 values for positive res, TargetSites_Rat_Female: hematopoietic system, kidney, large intestine, urinary bladder", "value": 15.6, "unit": "mg/kg/day"}]}, {"compound": "[O]N=O", "values": [{"measurement": "outcome", "value": "inactive; no positive results"}]}, {"compound": "C1C2OC2C2C1C1CC2C2OC12", "note": "(configuration not stated)", "values": [{"measurement": "outcome", "value": "inactive; no positive results"}]}, {"compound": "C[N+](C)(C)CCCl", "values": [{"measurement": "outcome", "setting": "[1]", "value": "inactive; no positive results"}]}, {"compound": "CC1(C)S[C@@H]2[C@H](NC(=O)COc3ccccc3)C(=O)N2[C@H]1C(=O)O", "values": [{"measurement": "outcome", "setting": "[1]", "value": "inactive; no positive results"}]}, {"compound": "CNCCc1ccc(OC(=O)C(C)C)c(OC(=O)C(C)C)c1", "values": [{"measurement": "outcome", "setting": "[1]", "value": "inactive; no positive results"}]}, {"compound": "NC(N)=Nc1nc(CSCCNc2nsnc2N)cs1", "values": [{"measurement": "Potency", "setting": "[4]", "value": 4990, "unit": "mg/kg/day"}]}, {"compound": "COc1cc(OC)c2c3c(c(=O)oc2c1)C(=O)CC3", "values": [{"measurement": "outcome", "value": "inactive; no positive results"}]}, {"compound": "Cc1[nH]cnc1CSCCN=C(NC#N)N(C)N=O", "values": [{"measurement": "outcome", "setting": "[1]", "value": "inactive; no positive results"}]}, {"compound": "CNC(=O)Oc1cc(C)c(N(C)C)c(C)c1", "values": [{"measurement": "outcome", "setting": "[1]", "value": "inactive; no positive results"}]}, {"compound": "ClC(Cl)(Cl)Cl", "values": [{"measurement": "Potency", "setting": "[5]", "value": 27.8, "unit": "mg/kg/day"}]}, {"compound": "O=Cc1ccco1", "values": [{"measurement": "Potency", "setting": "[1]", "value": 683, "unit": "mg/kg/day"}]}, {"compound": "CCCCC1(COC(=O)CCC(=O)O)C(=O)N(c2ccccc2)N(c2ccccc2)C1=O", "values": [{"measurement": "outcome", "setting": "[1]", "value": "inactive; no positive results"}]}, {"compound": "CCOCCc1c(-c2ccccc2)nc(N)n2ncnc12", "values": [{"measurement": "Potency", "setting": "[5]", "value": 548, "unit": "mg/kg/day"}]}, {"compound": "NC(N)=S", "values": [{"measurement": "Potency", "setting": "TD50_Rat_Note: TD50 is harmonic mean of more than one positive test, TargetSites_Rat_Female: no positive results", "value": 98.5, "unit": "mg/kg/day"}]}, {"compound": "N#Cc1c(Cl)c(Cl)c(Cl)c(C#N)c1Cl", "values": [{"measurement": "Potency", "setting": "TD50_Rat_Note: TD50 is harmonic mean of more than one positive test, TargetSites_Rat_Female: kidney", "value": 2270, "unit": "mg/kg/day"}]}, {"compound": "CC(O)CN(CC(C)O)N=O", "note": "(configuration not stated)", "values": [{"measurement": "Potency", "setting": "TD50_Rat_Note: TD50 is harmonic mean of more than one positive test, TargetSites_Rat_Female: esophagus, nasal cavity", "value": 0.846, "unit": "mg/kg/day"}]}, {"compound": "CCN(N=O)C(=O)NCC(C)=O", "values": [{"measurement": "Potency", "setting": "TD50_Rat_Note: TD50 is harmonic mean of more than one positive test, harmonic mean of TD50 includes a value for upper 99% confidence li, TargetSites_Rat_Female: large intestine, lung, mammary gland, nervous system, skin, thyroid gland, uterus", "value": 0.181, "unit": "mg/kg/day"}]}, {"compound": "c1ccc2ccccc2c1", "values": [{"measurement": "Potency", "setting": "TD50_Rat_Note: TD50 is harmonic mean of more than one positive test, TargetSites_Rat_Female: nasal cavity", "value": 22.1, "unit": "mg/kg/day"}]}, {"compound": "CCOc1ccc(NC(N)=O)cc1", "values": [{"measurement": "Potency", "setting": "TargetSites_Rat_BothSexes: liver", "value": 537, "unit": "mg/kg/day"}]}, {"compound": "O=NN1CCSCC1", "values": [{"measurement": "Potency", "setting": "TD50_Rat_Note: TD50 is harmonic mean of more than one positive test, TargetSites_Rat_Female: esophagus, oral cavity", "value": 5.39, "unit": "mg/kg/day"}]}, {"compound": "CC(=O)N(O)c1ccc2c(c1)Cc1ccccc1-2", "values": [{"measurement": "Potency", "setting": "[2]", "value": 0.988, "unit": "mg/kg/day"}]}, {"compound": "O=NN1CCCN(N=O)CC1", "values": [{"measurement": "Potency", "setting": "TD50_Rat_Note: TD50 is harmonic mean of more than one positive test, TargetSites_Rat_Female: esophagus, liver, nasal cavity, oral cavity", "value": 0.0615, "unit": "mg/kg/day"}]}, {"compound": "CC1CN(/N=C/c2ccc([N+](=O)[O-])o2)C(=O)N1", "note": "(configuration not stated)", "values": [{"measurement": "Potency", "setting": "[3]", "value": 5.34, "unit": "mg/kg/day"}]}, {"compound": "Cn1nc(CO)nc1NCCCOc1cccc(CN2CCCCC2)c1", "values": [{"measurement": "Potency", "setting": "[4]", "value": 479, "unit": "mg/kg/day"}]}]}
